Measurements as given in patent US20060165732A1, “Fungal antigens and eosinophil activity” (priority 2002, published 2006).
Read-outs that look alike come from different tables or passages of the source.

Legend:
[1] = test system: IL-5-induced eosinophil degranulation; assay type: cell-based, human
Description: (§1) To monitor eosinophil degranulation, 200 μL of freshly isolated eosinophils were resuspended in HBSS with 25 mM HEPES and 0.01% gelatin at 5×10^5 cells/mL and incubated with the a particular fungal extract. After incubation for 3 hours at 37° C. in a 5% CO2 atmosphere, cell-free supernatants from each well were collected and stored at −20° C. To quantitate eosinophil degranulation, the concentration of one of the eosinophil granule proteins in the sample supernatants, EDN, was measured by specific RIA, as described previously (Horie & Kita, 1994, J. Immunol., 152:5457). The RIA is a double-Ab competition assay in which radioiodinated EDN, rabbit anti-EDN Ab, and burro anti-rabbit IgG are used (Abu-Ghazaleh et al., 1989, J. Immunol., 142:2393). Sensitivity of the kit was 2 ng/mL. Total cellular EDN was measured in parallel supernatants from cells lysed with Nonidet P-40 detergent (Sigma Chemical Co.). All experiments were conducted in duplicate.
(§2) To examine the effect of cytochalasin B in the eosinophil response, eosinophils were preincubated with or without cytochalasin B (5 μg/mL) for 15 minutes at 37° C. After preincubation, eosinophils were exposed to either Alternaria culture extract (100 μg/mL) or IL-5 (10 ng/mL) for 3 hours at 37° C., and EDN release from eosinophils was measured.
(§3) Next, the effect of a Ca^2+ chelator, EGTA, on Alternaria- or IL-5-induced eosinophil degranulation was investigated.
(§4) Eosinophils were pre-treated with various concentrations of ionomycin (FIG. 8D) or thapsigargin (FIG. 8E) for 15 minutes, and then exposed to Alternaria culture extract (100 μg/mL) or IL-5 (10 ng/mL) for 3 hours at 37° C.

[2] = test system: Alternaria-induced eosinophil degranulation; assay: Effect of test agents on Alternaria-induced eosinophil degranulation (EDN release); assay type: cell-based, human
Description: as §1
The mechanism of the eosinophil degranulation response to Alternaria antigens was examined. To test whether Alternaria proteases are involved in eosinophil activation, Alternaria extracts either were pretreated with a cocktail of protease inhibitors (Complete™, Roche Molecular Biochemicals, Indianapolis, Ind.) or were not pretreated (control). Eosinophils then were incubated with the pretreated or control Alternaria extracts for 4 hours, and EDN release was measured.
as §2, §3, §4

PBMC = assay: Effect of fluticasone propionate on IL-5 production by PBMC (ELISA); assay type: cell-based, human
Description: PBMC were isolated from 30 mL of blood drawn from patients with chronic sinusitis, bronchial asthma, or normal individuals by density centrifugation using Histopaque®. Cells were then suspended in RPMI 1640 medium supplemented with 10% fetal bovine serum at 2×10^6 cells/mL and incubated for 3 days at 37° C. in 96-well tissue culture plates with medium alone, 25 μg/mL Alternaria cellular extract, 25 μg/mL Dermatophagoides Pteronyssinus (Der P; Greer Laboratories; a mite allergen), or 5 μg/mL Concanavalin A. Since Concanavalin A is a very potent inducer, supernatants of PBMC were diluted 50-fold before they were analyzed for the presence of IL-5.
To examine the effects of glucocorticoids on the eosinophilic response, fluticasone propionate (10^−10 M to 10^−6 M, GlaxoSmithKline) was added to the culture. After incubation, cell-free supernatants were collected and analyzed for IL-5 concentrations using an ELISA assay (Endogen, Inc.). In the experiments with Concanavalin A, the amount of IL-5 determined by ELISA was multiplied by 50 to account for the dilution factor.

mice = assay: Airway eosinophilia in mice (BAL fluid cells, DiffQuick stain); assay type: in vivo
Description: Mice were sensitized at day 14 with 20 μg/dose OVA or 100 μg/dose Alternaria extracts (cellular or culture) by intraperitoneal injection of the antigens followed by intranasal challenge with the appropriate antigen at 250 μg/dose on days 28, 30, and 32.
Eosinophils were detected in mice by collecting BAL fluids, isolating the cells using a cytospin preparation, and staining the cells with DiffQuick stain (DADE Behring, Inc., Newark, Del.).
Furthermore, at 250 μg/dose of Alternaria culture extract, about 10% of the mice died before day 8 due to massive respiratory failure.
To examine the role of IL-5 in airway eosinophilia induced by Alternaria culture extracts, mice were pre-treated with 25 μg/dose of an anti-IL-5 mAb (Pharmingen) or a control antibody (rat IgG) 24 hours before being intranasally challenged at days 0, 3, and 6 with 250 μg/dose OVA, or 250 μg/dose Alternaria culture extract. The number of eosinophils was analyzed by DiffQuick staining at day 8.

[3] = pre-treatment 15 minutes, various concentrations, Alternaria culture extract 100 μg/mL, 3 hours
[4] = pre-treatment 15 minutes, various concentrations, IL-5 10 ng/mL, 3 hours
[5] = fluticasone 10^−10 M, asthma patient PBMC, 3 days
[6] = fluticasone 10^−10 M, medium alone, asthma patient PBMC, 3 days
[7] = fluticasone 10^−10 M, multiplied by 50 for dilution
[8] = fluticasone 10^−10 M, supernatant diluted 50-fold

C=CC[C@@H]1/C=C(\C)C[C@H](C)C[C@H](OC)[C@H]2O[C@@](O)(C(=O)C(=O)N3CCCC[C@H]3C(=O)O[C@H](/C(C)=C/[C@@H]3CC[C@@H](O)[C@H](OC)C3)[C@H](C)[C@@H](O)CC1=O)[C@H](C)C[C@@H]2OC [FK-506]
effect on IL-5-induced eosinophil degranulation ([1]; various concentrations): no effect

C=C1[C@@H](C)[C@H]2[C@H](Cc3ccccc3)NC(=O)[C@]23OC(=O)/C=C/[C@H](O)CCC[C@@H](C)C/C=C/[C@H]3[C@@H]1O [cytochalasin B]
effect on Alternaria-induced eosinophil degranulation ([2]; 5 μg/mL preincubation 15 minutes, Alternaria culture extract 100 μg/mL, 3 hours): not affected | effect on IL-5-induced degranulation ([1]; 5 μg/mL preincubation 15 minutes, IL-5 10 ng/mL, 3 hours): inhibited

C/C=C(/C)C(=O)O[C@H]1C(C)=C2[C@H]([C@@H]1OC(=O)CCCCCCC)[C@@](C)(OC(C)=O)C[C@H](OC(=O)CCC)[C@@]1(O)[C@H]2OC(=O)[C@@]1(C)O [thapsigargin]
effect on Alternaria-induced eosinophil degranulation [2, 3]: synergistically increased | effect on IL-5-induced eosinophil degranulation [1, 4]: significantly inhibited

CCC(=O)O[C@]1(C(=O)SCF)[C@H](C)C[C@H]2[C@@H]3C[C@H](F)C4=CC(=O)C=C[C@]4(C)[C@@]3(F)[C@@H](O)C[C@@]21C [fluticasone propionate]
IL-5 production in the presence of Concanavalin A (PBMC): inhibited | IL-5 production in Alternaria-induced PBMC (PBMC; 10^−10 M, lowest concentration): significantly inhibited | IL-5 production in the presence of Der P (PBMC; 10—O M as printed): inhibited | IL-5, Cellular Alternaria Extract (25 μg/mL), 1 (PBMC; fluticasone 10^−9 M, asthma patient PBMC, 3 days): 0.4 | IL-5, Cellular Alternaria Extract (25 μg/mL), 1 (PBMC; [5]): 1.4 | IL-5, Cellular Alternaria Extract (25 μg/mL), 2 (PBMC; [5]): 3.9 | IL-5, Cellular Alternaria Extract (25 μg/mL), mean (PBMC; [5]): 2.6 | IL-5, Der P (25 μg/mL), 2 (PBMC; [5]): 0.9 | IL-5, Der P (25 μg/mL), mean (PBMC; [5]): 0.9 | IL-5, Con A (5 μg/mL), mean (PBMC; fluticasone 10^−10 M, mean of values multiplied by 50): 101 | IL-5, Medium, 1 (PBMC; [6]): 1.3 | IL-5, Medium, 2 (PBMC; [6]): 0.3 | IL-5, Medium, mean (PBMC; [6]): 0.8 | IL-5, Con A (5 μg/mL), 1*50 (PBMC; [7]): 87 | IL-5, Con A (5 μg/mL), 2*50 (PBMC; [7]): 115 | IL-5, Con A (5 μg/mL), 1 (PBMC; [8]): 1.7 | IL-5, Con A (5 μg/mL), 2 (PBMC; [8]): 2.3

CCCC[C@@H](C=O)NC(=O)[C@H](CC(C)C)NC(=O)OCc1ccccc1 [calpeptin, Calpeptin]
effect on IL-5-induced eosinophil degranulation ([1]; various concentrations): partially inhibited

COc1cccc(-c2cc(=O)c3ccccc3o2)c1N [PD98059]
effect on IL-5-induced eosinophil degranulation ([1]; various concentrations): partially inhibited

O=C(O)CN(CCN(CC(=O)O)CC(=O)O)CC(=O)O [EDTA]
effect on Alternaria-induced eosinophil degranulation ([2]; various concentrations): completely inhibited | effect on IL-5-induced eosinophil degranulation [1]: completely inhibited

C[S+]([O-])c1ccc(-c2nc(-c3ccncc3)c(-c3ccc(F)cc3)[nH]2)cc1 (stereo not drawn) [SB203580]
effect on IL-5-induced eosinophil degranulation ([1]; various concentrations): completely inhibited

O=c1c(-c2ccc(O)cc2)coc2cc(O)cc(O)c12 [Genistein]
effect on IL-5-induced eosinophil degranulation ([1]; various concentrations): completely inhibited

C[C@H](CCC(=O)O)C[C@H](C)C[C@H](C)C(=O)/C=C(\O)[C@H](C)C[C@H](C)C/C=C/[C@@H](C)[C@@H](O)[C@@H](C)[C@@H](O)C[C@@H]1CC[C@@](C)([C@H]2CC[C@@](C)([C@@H](C)O)O2)O1 [ionomycin]
effect on Alternaria-induced eosinophil degranulation [2, 3]: synergistically increased | effect on IL-5-induced eosinophil degranulation [1, 4]: significantly inhibited

Herbmycin
effect on IL-5-induced eosinophil degranulation ([1]; various concentrations): completely inhibited

Cn1c2ccccc2c2c3c(c4c5ccccc5n(CCC#N)c4c21)CNC3=O [Go 6976]
effect on IL-5-induced eosinophil degranulation ([1]; various concentrations): completely inhibited

CCCCCCCCCCCCCCCCCCNC(=O)OCC(COC(=O)N(Cc1cccc[n+]1CC)C(C)=O)OC (stereo not drawn) [CV6209]
IC50 ([2]; Homo sapiens, Eosinophil, read-out: IC50 for Alternaria-induced degranulation): ~1000 nM

CN(C)CCCn1cc(C2=C(c3c[nH]c4ccccc34)C(=O)NC2=O)c2ccccc21 [GF109203X]
effect on IL-5-induced eosinophil degranulation ([1]; various concentrations): partially inhibited

CC(=O)c1c(O)c(C)c(O)c(Cc2c(O)c3c(c(C(=O)/C=C/c4ccccc4)c2O)OC(C)(C)C=C3)c1O [Rottelerin]
effect on IL-5-induced eosinophil degranulation ([1]; various concentrations): completely inhibited

NCCc1ccc(S(=O)(=O)F)cc1 [AEBSF]
inhibition of Alternaria-induced eosinophil degranulation ([2]; Alternaria extracts pretreated with inhibitor, 4 hours, EDN release): 89%

O=C(O)CN(CCOCCOCCN(CC(=O)O)CC(=O)O)CC(=O)O [EGTA]
effect on Alternaria-induced eosinophil degranulation ([2]; 1 mM, pretreatment 15 minutes): almost completely inhibited | effect on Alternaria-induced eosinophil degranulation ([2]; 10 mM, pretreatment 15 minutes): almost completely inhibited | effect on IL-5-induced degranulation ([1]; 1 mM, pretreatment 15 minutes): only partially inhibited | effect on IL-5-induced degranulation ([1]; 10 mM, pretreatment 15 minutes): almost completely inhibited

B1: OVA: OVA antigen used for sensitization and challenge of mice (protein, UniProt P01012 2-386, looked up)
Ovalbumin: GSIGAASMEFCFDVFKELKVHHANENIFYCPIAIMSALAMVYLGAKDSTRTQINKVVRFDKLPGFGDSIEAQCGTSVNVHSSLRDILNQITKPNDVYSFSLASRLYAEERYPILPEYLQCVKELYRGGLEPINFQTAADQARELINSWVESQTNGIIRNVLQPSSVDSQTAMVLVNAIVFKGLWEKAFKDEDTQAMPFRVTEQESKPVQMMYQIGLFRVASMASEKMKILELPFASGTMSMLVLLPDEVSGLEQLESIINFEKLTEWTSSNVMEERKIKVYLPRMKMEEKYNLTSVLMAMGITDVFSSSANLSGISSAESLKISQAVHAAHAEINEAGREVVGSAEAGVDAASVSEEFRADHPFLFCIKHIATNAVLFFGRCVSP
airway eosinophilia in non-sensitized (naïve) mice (mice; intranasal challenge only): not | airway eosinophilia in sensitized and challenged mice (mice; intraperitoneal sensitization day 14, intranasal challenge 250 μg/dose days 28, 30, 32): developed airway eosinophilia by day 34
